Data reported in ChEMBL document CHEMBL1157539, “Thousands of chemical starting points for antimalarial lead identification” (Nature, 2010).

Tested on: Plasmodium falciparum
Test: GSK_TCMDC: Inhibition of Plasmodium falciparum 3D7 in whole erythrocytes, using parasite LDH activity as an index of growth.
Type: functional, organism-based
Settings: Plasmodium falciparum, 3D7

`CC(C)(C)NCCN(Cc1ccc(-c2ccc(C(F)(F)F)cc2)cc1)C(=O)Cn1c(CCc2cccc(F)c2F)nc(=O)c2c1CCC2` was tested, and the XC50 was 948 nM.
Work on `COc1ccc2nccc(N(C)CC3(O)CCC(NCc4cc5c(cn4)OCCO5)CC3)c2n1` (stereo not drawn) yielded an XC50 of 675 nM.
In the case of `CCn1c(-c2nonc2N)nc2c(-c3ccccc3)ncc(OCCCNCCCN3CCOCC3)c21`, the XC50 is reported as 669 nM.
`c1ccc2c(NCCCCCCCCNc3ccnc4ccccc34)ccnc2c1` showed an XC50 of 155 nM.
In the case of `CS(=O)(=O)c1ccc(CNCc2ccc(-c3ccc(-c4nc5cc(C(F)(F)F)ccc5[nH]4)s3)cc2)cc1`, the XC50 is reported as 156 nM.
`O=C(Nc1cccc(-c2ccc(-c3nc4cc(C(F)(F)F)ccc4[nH]3)cc2)c1)Nc1ccc(F)c(F)c1F` showed an XC50 of 259 nM.
`Cc1cc(C)c(NC(=O)N2CCCN(CCCCCNC(=O)/C=C/c3ccc(Cl)c(Cl)c3)CC2)c(C)c1` was tested, and the XC50 was 968 nM.
With `N#Cc1ccc(CN2CCC(Oc3ccc(NC(=O)c4cccs4)cc3Cl)C2)cc1` (stereo not drawn) the XC50 was 402 nM.
In the case of `COc1ccc(CN2CCN(CCCCNC(=O)c3ccc(NC(=O)c4ccc(Cl)cc4)cc3)CC2)c(OC)c1`, the XC50 is reported as 890 nM.
For `CCCOc1ccc(CCNCCCCNCCc2ccc(OCCC)c3ccccc23)c2ccccc12`, the XC50 was 917 nM.
Compound `Cc1cc(Nc2nc(Nc3cccc(Cl)c3)nc3ccccc23)n[nH]1` has an XC50 of 287 nM.
Work on `Cc1c(CNCCN2CCCCC2)c(C(=O)O)c(C)n1Cc1ccc(Cl)cc1` yielded an XC50 of 416 nM.
In the case of `Cc1cc(N2CCCC2)nc(Nc2ccc(NC(=O)c3cccc(F)c3)cc2)n1`, the XC50 is reported as 182 nM.
`O=C(Nc1ccc(CCN2CCC(c3nc(COCC(F)(F)F)c(-c4ccccc4)o3)CC2)cc1)c1ccc(F)cc1` showed an XC50 of 1970 nM.
Compound `COc1ccc2nccc([C@@H](O)CN3CCC(NCc4nc5c(OCc6ccccc6)cccc5[nH]4)CC3)c2c1` has an XC50 of 178 nM.
`Oc1ccc(CCCNc2nc(NCc3ccccc3-c3ccccc3)nc(N3CCNCC3)n2)cc1` showed an XC50 of 713 nM.
`Cc1[nH]c(C)c(Cc2ccc(Oc3ccc(OC(F)(F)F)cc3)cc2)c(=O)c1Br` gave an XC50 of 686 nM.
With `Oc1cccc(-c2cnc3ccc(NCc4ccc(F)cc4)nn23)c1` the XC50 was 1080 nM.
`O=C(NCCN1CCC(NC(=O)c2ccc(-c3ccccn3)s2)CC1)c1cccc(C(F)(F)F)c1` was tested, and the XC50 was 861 nM.
In the case of `Oc1ccc(CCNCCCCCCNCCc2ccc(Cl)c(Cl)c2)cc1O`, the XC50 is reported as 726 nM.
For `Cc1cccc2nc(-c3ccc(-c4cccc(NC(=O)NCc5ccc(F)cc5)c4)cc3)[nH]c12`, the XC50 was 146 nM.
`CN1CCN(CC(=O)Nc2ccc(-c3ccc(-c4nc5cc(C(F)(F)F)ccc5[nH]4)cc3)cc2)CC1` gave an XC50 of 420 nM.
Compound `CCc1c[nH]c2c(N3CCCS3(=O)=O)cc(C(=O)N[C@@H](Cc3ccccc3)[C@H](O)CNC3CCCCC3)cc12` has an XC50 of 774 nM.
For `COc1ccc(Cn2cncc2CN(CCC(C)C)C(=O)c2ccc(Cl)nc2Cl)cc1`, the XC50 was 1040 nM.
Compound `Cc1cc(OCC2CCN(c3ncc(C(=O)NC4CC4)cc3Cl)CC2)ccc1F` has an XC50 of 789 nM.
With `CN1Cc2cc(NC(=O)/C=C/c3ccccc3Cl)ccc2C(C)(C)C1` the XC50 was 641 nM.
In the case of `CN1CCN(c2ccc(Nc3ccnc4ccc(-c5ccccc5)cc34)cc2)CC1`, the XC50 is reported as 92.9 nM.
`O=C(Cc1ccc[n+]([O-])c1)Nc1cccc(-c2cccc(-c3nc4cc(F)ccc4[nH]3)c2)c1` gave an XC50 of 897 nM.
Compound `CNS(=O)(=O)Cc1ccc(Nc2nccc(Nc3cccc4c3cnn4C(=O)Nc3ccccc3)n2)cc1` has an XC50 of 959 nM.
`COc1ccccc1CNC(=O)c1cc(C2CC2)nc2c1cnn2C(C)C` was tested, and the XC50 was 1020 nM.
`CC1(C)NC(N)=NC(=N)N1OCCOc1ccc(Cc2ccccc2)cc1` showed an XC50 of 44 nM.
With `CN(C)C(=O)CC(=O)NCc1c(Cl)cccc1Cl` the XC50 was 203 nM.
`Nc1nc(N)c2c(Oc3cccnc3)cccc2n1` was tested, and the XC50 was 886 nM.
`NCc1ccc(CNCc2cccc(-c3cccc(-c4nc5cc(F)ccc5[nH]4)c3)c2)cc1` was tested, and the XC50 was 308 nM.
For `CCc1c(C)nc(-n2nc(C)cc2NC(=O)c2cccc3ccccc23)[nH]c1=O`, the XC50 was 682 nM.
In the case of `O=C(Nc1cccc(CN2CCCN(Cc3cccc(O)c3)CC2)c1)c1cc2ccccc2s1`, the XC50 is reported as 365 nM.
`Cc1cc(-c2cc(-c3ccc(OCCN(C)C)cc3)[nH]c2-c2ccc3c(c2)CCC3=NO)ccn1` was tested, and the XC50 was 867 nM.
`CC(C)CNCc1cccc(-c2cccc(CN(C(=O)NC3CCCCC3)C3CCN(Cc4ccccc4)CC3)c2)c1` was tested, and the XC50 was 821 nM.
